# Reference: US20080032945A1, “2'-MODIFIED OLIGONUCLEOTIDES” (Isis Pharmaceuticals, Inc., priority 1992, published 2008)
# pIC50: −log10 of the molar value. Values joined by “and” are separate entries in the source; they are usually repeats but may differ in a detail not shown here. Identical values can stand only once. “Also recorded” adds a separate entry of the source. [OPr] = 2'-O-propyl ribonucleoside; d = 2'-deoxy (DNA); m = 2'-O-methyl; f = 2'-fluoro
# Key:
# [1] = system: c-raf mRNA; assay: Northern blot analysis of inhibition of c-raf mRNA expression in T24 cells; assay type: cell-based, human
# Text: Chimeric oligonucleotides having SEQ ID NO:7 were designed using the Genbank c-raf sequence HUMRAFR (Genbank listing x03484), synthesized and tested for inhibition of c-raf mRNA expression in T24 bladder carcinoma cells using a Northern blot assay. These chimeric oligonucleotides have central “gap” regions of 6, 8 or 10 deoxynucleotides flanked by two regions of 2′-O-methyl modified nucleotides, and are shown in Table 10. Backbones were uniformly phosphorothioate. […] These oligonucleotides are preferred.
# The human urinary bladder cancer cell line T24 was obtained from the American Type Culture Collection (Rockville, Md.). Cells were grown in McCoy's 5A medium with L-glutamine (GIBCO-BRL, Gaithersburg, Md.), supplemented with 10% heat-inactivated fetal calf serum and 50 U/ml each of penicillin and streptomycin. Cells were seeded on 100 mm plates. When they reached 70% confluency, they were treated with oligonucleotide. Plates were washed with 10 ml prewarmed PBS and 5 ml of OptiMEM reduced-serum medium containing 2.5 μl DOTMA. Oligonucleotide with lipofectin was then added to the desired concentration. After 4 hours of treatment, the medium was replaced with McCoy's medium. Cells were harvested 24 to 72 hours after oligonucleotide treatment and RNA was isolated using a standard CsCl purification method. [Kingston in Current Protocols in Molecular Biology, F. M. Ausubel, R. Brent, R. E. Kingston, D. D. Moore, J. A. Smith, J. G. Seidman and K. Strahl, Eds., John Wiley and Sons, New York.] Total RNA was isolated by centrifugation of cell lysates over a CsCl cushion. RNA samples were electrophoresed through 1.2% agarose-formaldehyde gels and transferred to hybridization membranes by capillary diffusion over a 12-14 hour period. The RNA was cross-linked to the membrane by exposure to UV light in a Stratalinker (Stratagene, La Jolla, Calif.) and hybridized to random-primed ^32P-labeled c-raf cDNA probe (obtained from ATCC) or G3PDH probe as a control. RNA was quantitated using a Phosphorimager (Molecular Dynamics, Sunnyvale, Calif.).
# [2] = system: 25mer oligoribonucleotide complement; assay: Melting curves with 25mer oligoribonucleotide complement; assay type: binding; conditions: 17mer hybridized with 25mer oligoribonucleotide complement
# Text: Other sugar modifications: The effects of other 2′ sugar modifications besides 2′-O-methyl on antisense activity in chimeric oligonucleotides have been examined. These modifications are listed in Table 4, along with the Tm values obtained when 17mer oligonucleotides having 2′-modified nucleotides flanking a 7-base deoxy gap were hybridized with a 25mer oligoribonucleotide complement as described in Example 25. […] As alkyl length increased, Tm decreased.
# Absorbance vs. temperature curves were measured at 260 nm using a Gilford 260 spectrophotometer interfaced to an IBM PC computer and a Gilford Response II spectrophotometer. The buffer contained 100 mM Na^+, 10 mM phosphate and 0.1 mM EDTA, pH 7. Oligonucleotide concentration was 4 μM each strand determined from the absorbance at 85° C. and extinction coefficients calculated according to Puglisi and Tinoco [Methods in Enzymol., 180, 304 (1989). Tm values, free energies of duplex formation and association constants were obtained from fits of data to a two state model with linear sloping baselines. [Petersheim and Turner, Biochemistry, 22, 256 (1983). Reported parameters are averages of at least three experiments. For some oligonucleotides, free energies of duplex formation were also obtained from plots of Tm^−1 vs log10 (concentration). Borer et al., J. Mol. Biol., 86, 843 (1974).
# [3] = system: H-ras; assay: ras transactivation reporter gene assay; assay type: cell-based; conditions: result in words
# Procedure: These 2′ modified oligonucleotides were tested for antisense activity against H-ras using the transactivation reporter gene assay described in Example 26. […] A 2′-fluoro chimeric oligonucleotide with a centered 5-deoxy gap was also active.
# The expression plasmid pSV2-oli, containing an activated (codon 12, GGC-GTC) H-ras cDNA insert under control of the constitutive SV40 promoter, was a gift from Dr. Bruno Tocque (Rhone-Poulenc Sante, Vitry, France). This plasmid was used as a template to construct, by PCR, a H-ras expression plasmid under regulation of the steroid-inducible mouse mammary tumor virus (MMTV) promoter. To obtain H-ras coding sequences, the 570 bp coding region of the H-ras gene was amplified by PCR. The PCR primers were designed with unique restriction endonuclease sites in their 5′-regions to facilitate cloning. The PCR product containing the coding region of the H-ras codon 12 mutant oncogene was gel purified, digested, and gel purified once again prior to cloning. This construction was completed by cloning the insert into the expression plasmid pMAMneo (Clontech Laboratories, CA).
# The ras-responsive reporter gene pRDO53 was used to detect ras expression. [Owen et al., Proc. Natl. Acad. Sci. U.S.A., 87, 3866 (1990).
# [4] = system: ras mRNA; assay: Northern blot analysis of ras expression in T24 cells; assay type: cell-based, human; conditions: for ras expression / ras mRNA levels: result in words
# Procedure: The human urinary bladder cancer cell line T24 was obtained from the American Type Culture Collection (Rockville Md.). Cells were grown in McCoy's 5A medium with L-glutamine (GIBCO-BRL, Gaithersburg, Md.), supplemented with 10% heat-inactivated fetal calf serum and 50 U/ml each of penicillin and streptomycin. Cells were seeded on 100 mm plates. When they reached 70% confluency, they were treated with oligonucleotide. Plates were washed with 10 ml prewarmed PBS and 5 ml of OptiMEM (GIBCO) reduced-serum medium containing 2.5 μl DOTMA. Oligonucleotide was then added to the desired concentration. After 4 hours of treatment, the medium was replaced with McCoy's medium. Cells were harvested 48 hours after oligonucleotide treatment and RNA was isolated using a standard CsCl purification method. [Kingston in Current Protocols in Molecular Biology, F. M. Ausubel, R. Brent, R. E. Kingston, D. D. Moore, J. A. Smith, J. G. Seidman and K. Strahl, Eds., John Wiley and Sons, New York.] The human epithelioid carcinoma cell line HeLa 229 was obtained from the American Type Culture Collection (Bethesda, Md.). HeLa cells were maintained as monolayers on 6-well plates in Dulbecco's Modified Eagle's medium (DMEM) supplemented with 10% fetal bovine serum and 100 U/ml penicillin. Treatment with oligonucleotide and isolation of RNA were essentially as described above for T24 cells.
# Northern hybridization: 10 μg of each RNA was electrophoresed on a 1.2% agarose/formaldehyde gel and transferred overnight to GeneBind 45 nylon membrane (Pharmacia LKB, Piscataway, N.J.) using standard methods. [Kingston in Current Protocols in Molecular Biology, F. M. Ausubel, R. Brent, R. E. Kingston, D. D. Moore, J. A. Smith, J. G. Seidman and K. Strahl, Eds., John Wiley and Sons, New York.] RNA was UV-crosslinked to the membrane. Double-stranded ^32P-labeled probes were synthesized using the Prime a Gene labeling kit (Promega, Madison Wis.). The ras probe was a SalI-NheI fragment of a cDNA clone of the activated (mutant) H-ras mRNA having a GGC-to-GTC mutation at codon-12. The control probe was G3PDH. Blots were prehybridized for 15 minutes at 68° C. with the QuickHyb hybridization solution (Stratagene, La Jolla, Calif.). The heat-denatured radioactive probe (2.5×10^6 counts/2 ml hybridization solution) mixed with 100 μl of 10 mg/ml salmon sperm DNA was added and the membrane was hybridized for 1 hour at 68° C. The blots were washed twice for 15 minutes at room temperature in 2×SSC/0.1% SDS and once for 30 minutes at 60° C. with 0.1×SSC/0.1% SDS. Blots were autoradiographed and the intensity of signal was quantitated using an ImageQuant PhosphorImager (Molecular Dynamics, Sunnyvale, Calif.). Northern blots were first hybridized with the ras probe, then stripped by boiling for 15 minutes in 0.1×SSC/0.1% SDS and rehybridized with the control G3PDH probe to check for correct sample loading.
# [5] = system: T24 cancer cell proliferation; assay: Antisense oligonucleotide inhibition of proliferation of cancer cells; assay type: cell-based, human; conditions: for pIC50: T24 cell proliferation, dose-response; for inhibited cell proliferation: T24 cells
# Procedure: Antisense oligonucleotide inhibition of proliferation of cancer cells: Three 17mer oligonucleotides having the same sequence (SEQ ID NO:1), complementary to the codon 12 region of activated ras, were tested for effects on T24 cancer cell proliferation as described in Example 28. 3985 is a full phosphorothioate oligonucleotide having a 7-deoxy gap flanked by 2′-O-methyl nucleotides, and 4690 is a full phosphorothioate oligonucleotide having a 7-deoxy gap flanked by 2′-F nucleotides (C^FC^FA^F C^FA^FCd CdGdAd CdGdGd C^FG^FC^F C^FC^F, SEQ ID NO:1, nucleotides identified with an “^F” contain a […] substituent group and the remainder of the nucleotides identified with a “d” are 2′-deoxy-erythro-pentofuranosyl nucleotides).
# Cells were cultured and treated with oligonucleotide essentially as described in Example 27. Cells were seeded on 60 mm plates and were treated with oligonucleotide in the presence of DOTMA when they reached 70% confluency. Time course experiment: On day 1, cells were treated with a single dose of oligonucleotide at a final concentration of 100 nM. The growth medium was changed once on day 3 and cells were counted every day for 5 days, using a counting chamber. Dose-response experiment: Various concentrations of oligonucleotide (10, 25, 50, 100 or 250 nM) were added to the cells and cells were harvested and counted 3 days later. Oligonucleotides 2570, 3985 and 4690 were tested for effects on T24 cancer cell proliferation.
# [6] = system: ras-luciferase (codon-12 point mutation of activated H-ras); assay: ras-luciferase reporter gene system; assay type: cell-based, human; conditions: for inhibition of ras-luciferase activity: cells expressing the mutant form of ras-luciferase, dose response, FIGS. 1 and 2
# [7] = system: ras mRNA (wild-type H-ras codon-12); assay: Northern blot analysis of ras expression in HeLa cells; assay type: cell-based, human; conditions: result in words
# Procedure: Oligonucleotides 2570 and 2503 were also tested to determine their effects on ras expression in HeLa cells, which have a wild-type (i.e., not activated) H-ras codon-12.
# The human urinary bladder cancer cell line T24 was obtained from the American Type Culture Collection (Rockville Md.). Cells were grown in McCoy's 5A medium with L-glutamine (GIBCO-BRL, Gaithersburg, Md.), supplemented with 10% heat-inactivated fetal calf serum and 50 U/ml each of penicillin and streptomycin. Cells were seeded on 100 mm plates. When they reached 70% confluency, they were treated with oligonucleotide. Plates were washed with 10 ml prewarmed PBS and 5 ml of OptiMEM (GIBCO) reduced-serum medium containing 2.5 μl DOTMA. Oligonucleotide was then added to the desired concentration. After 4 hours of treatment, the medium was replaced with McCoy's medium. Cells were harvested 48 hours after oligonucleotide treatment and RNA was isolated using a standard CsCl purification method. […]
# Northern hybridization: 10 μg of each RNA was electrophoresed on a 1.2% agarose/formaldehyde gel and transferred overnight to GeneBind 45 nylon membrane (Pharmacia LKB, Piscataway, N.J.) using standard methods. […] Blots were autoradiographed and the intensity of signal was quantitated using an ImageQuant PhosphorImager (Molecular Dynamics, Sunnyvale, Calif.). […]
substance,measurement,setting,value
"CTCGCCCGCTCCTCCTCCCC (all phosphorothioate, sugars by position and methylation of C not given here; further chemistry not fully specified) [ISIS 7849, chimeric 2′-O-methyl P═S c-raf oligonucleotide, 5′UTR]",inhibition of c-raf mRNA expression,[1],> 70%
C^FC^FA^F C^FA^FCd CdGdAd CdGdGd C^FG^FC^F C^FC^F [Oligonucleotide 4690],Tm,[2],76.9 °C
same,antisense activity against H-ras (ras expression),[3],most active
same,inhibition of ras expression / decrease of ras mRNA,[4],82%
same,pIC50,[5],7.36
same,inhibited cell proliferation,[5],93%
C^MC^MA^M C^MA^MCd CdGdAd CdGdGd C^MG^MC^M C^MC^M [Oligonucleotide 3985],inhibition of ras-luciferase activity,[6],greatest inhibition
same,Tm,[2],74.7 °C
same,inhibition of ras expression / decrease of ras mRNA,[4],95% and 81%
same,pIC50,[5],7.21
same,inhibited cell proliferation,[5],82%
"CdCdAd CdAdCd CdGdAd CdGdGd CdGdCd CdCd [Oligonucleotide 2570, reference compound]",selectivity toward the mutant form of ras-luciferase as compared to the normal form,[6],threefold
same,inhibition of ras-luciferase activity,[6],dose-dependent inhibition
same,Tm,[2],64.2 °C
same,ras expression / ras mRNA levels,[4],inhibited ras expression in T24 cells; also recorded: decreased ras mRNA levels in T24 cells
same,ras expression,[7],did not inhibit ras expression in HeLa cells
"O-Propyl: 17-mer CCACACCGACGGCGCCC (SEQ ID NO: 1), 2′-O-propyl nucleotides flanking a 7-base deoxy gap (sugars from the 5' end [OPr]5 d7 [OPr]5, backbone and methylation of C not given here)",Tm,[2],70.4 °C
"Oligonucleotide 4689: SEQ ID NO:1 chimeric oligonucleotide, 2′-fluoro-modified nucleotides flanking a 5-deoxy gap (CCACACCGACGGCGCCC; sugars from the 5' end f6 d5 f6, backbone and methylation of C not given here)",antisense activity against H-ras (ras expression),[3],also active
same,inhibition of ras expression / decrease of ras mRNA,[4],63%
"TCCCGCCTGTGACATGCATT (all phosphorothioate, sugars by position and methylation of C not given here; further chemistry not fully specified) [ISIS 6717, chimeric 2′-O-methyl P═S c-raf oligonucleotide, 8-deoxy gap]",inhibition of c-raf mRNA expression,[1],greater than 90%
"TCCGTCATCGCTCCTCAGGG [Compound 2503, reference compound]",inhibition of ras expression / decrease of ras mRNA,[4],71%
same,ras expression / ras mRNA levels,[4],inhibited ras expression in T24 cells
same,ras expression,[7],inhibited ras expression in HeLa cells
"TTCTCCTCCTCCCCTGGCAG (sugars from the 5' end m12 d8, all phosphorothioate, T or U not given here) [ISIS 7854, chimeric 2′-O-methyl P═S c-raf oligonucleotide, 3′UTR]",inhibition of c-raf mRNA expression,[1],> 70%
"TTCTCGCCCGCTCCTCCTCC (all phosphorothioate, sugars by position and methylation of C not given here; further chemistry not fully specified) [ISIS 7856, chimeric 2′-O-methyl P═S c-raf oligonucleotide, 5′UTR]",inhibition of c-raf mRNA expression,[1],> 70%
